Assay results from BigSolDB 2.1.

c1cc2c3c(cccc3c1)CC2
solubility (mole fraction)
Details	in acetone	in benzene	in isobutanol	in m-xylene	in n-propanol
283 K	0.0417	0.118	0.00926	0.109	0.00879
288 K	0.0491	0.131	–	0.129	–
288.1 K	–	–	0.0128	–	0.012
293 K	0.0587	–	–	0.143	–
293.2 K	–	0.142	0.0162	–	0.0144
298 K	0.0692	0.162	0.0205	0.163	0.0175
303 K	0.0788	0.187	–	–	–
303.1 K	–	–	–	0.188	–
303.3 K	–	–	0.0253	–	0.0208
308 K	–	–	0.0297	–	0.0246
308.1 K	0.0954	–	–	–	–
308.2 K	–	–	–	0.216	–
308.3 K	–	0.215	–	–	–
313 K	0.113	0.244	–	0.245	–
313.1 K	–	–	0.0353	–	0.0295
318 K	0.136	0.277	0.0435	0.281	0.0364
323 K	0.173	0.312	0.0565	0.321	0.0464
